Key:
Assay type in all cases: cell-based, human
[1] = system: NCI-H358 cells with Kras G12C mutation; assay: Cell proliferation inhibition experiment, 3D spheroid, CellTiter-Glo (Test Example 1); details: Homo sapiens, NCI-H358, 120 h, 5 days
Protocol: (§1) NCI-H358 was a human NSCLC cell line with Kras G12C mutation, which was cultured in a RPMI-1640 medium with 10% fetal bovine serum (FBS). A549 was a human lung adenocarcinoma cell line with Kras G12S mutation, which was cultured in an F-12K medium with 10% FBS. Cells in logarithmic growth phase were detached with trypsin and EDTA, collected and counted, and H358 was regulated to 1.8E4 cells/ml by using an RPMI-1640 medium with 2% FBS, while A549 was regulated to 8.9E3 cells/ml with an F-12K medium containing 2% FBS. 800 (45 μl) H358 cells and 400 (45 μl) A549 cells were seeded to 384-well spheroid plates, respectively, and cultured overnight to establish 3D cell models. 1000× stock solutions of compounds at a concentration gradient of 3.16 were prepared by using DMSO, and diluted 100 times by the medium with 2% FBS into 10× stock solutions of compounds. On the day after cell seeding, 5 μl of 10× stock solution of a compound was added to each well of cell culture plate, with a final concentration being 1× and a DMSO content of 0.1%. DMSO was used as the control, and the medium with 2% FBS was used as blank control group. After 5 days of cell culture with the compound, 25 μl of CellTiter-Glo working solution was added to each well, and mixed uniformly at 400 rpm and incubation for 30 minutes. After standing at room temperature for 30 minutes, 40 μl of mixed solution was transferred to a 384-well plate with white clear bottom. A value of luminescence was then read, and a cell proliferation inhibition rate (IR) (%)=(RLU control-RLU compound)/(RLU control−RLU blank)×100%. The value of IC50 was calculated by fitting a gradiently diluted concentration of the compound and the corresponding cell proliferation inhibition rate using a Prism 6 four-parameter method.

[2] = system: A549 cells with Kras G12S mutation; assay: as above; details: Homo sapiens, A549, 120 h, 5 days
Protocol: as §1

[3] = system: MIA PaCa-2 cells with Kras G12C mutation; assay: Cell proliferation inhibition experiment, 3D spheroid, CellTiter-Glo (Test Example 3); details: Homo sapiens, MIA PaCa-2, 120 h, 5 days, read-out: MIA-PaCa2 IC50
Protocol: MIA PaCa-2 was a human pancreatic carcinoma cell line with Kras G12C mutation, which was cultured in a DMEM with 10% FBS and 2.5% Horse serum. A549 was a human lung adenocarcinoma cell line with Kras G12S mutation, which was cultured in an F-12K medium with 10% FBS. Cells in logarithmic growth phase were detached with trypsin and EDTA, collected and counted, and 200 MIA PaCa-2 cells and 400 A549 cells were seeded to 384-well spheroid plates, respectively, and cultured overnight to establish 3D cell models. 1000× stock solutions of compounds at a concentration gradient of 3.16 were prepared by using DMSO, and diluted 100 times by the medium into 10× stock solutions of compounds. On the day after cell seeding, 10× stock solution of a compound was added to each well of cell culture plate, with a final concentration being 1× and a DMSO content of 0.1%. DMSO was used as the control, and the medium was used as the blank. After 5 days of cell culture with the compound, 30 μl of CellTiter-Glo working solution was added to each well, and mixed uniformly and incubation for 30 minutes. After standing at room temperature for 30 minutes, 40 μl of mixed solution was transferred to a 384-well plate with white unclear bottom. A value of luminescence intensity was then read, and a cell proliferation inhibition rate (IR) (%)=(RLU control−RLU compound)/(RLU control−RLU blank)×100%. The value of IC50 was calculated by fitting a gradiently diluted concentration of the compound and the corresponding cell proliferation inhibition rate using an XLFit four-parameter method.

[4] = system: phosphorylated ERK in MIA PaCa2 cells with Kras G12C mutation; assay: p-ERK HTRF assay for cells (Test Example 2); details: Homo sapiens, MIA PaCa-2, 2 h, MIA PaCa2 cells, 2 hours with compound; read-out: p-ERK IC50
Protocol: MIA PaCa2 was a human pancreatic carcinoma cell line with Kras G12C mutation, which was cultured in a DMEM with 10% FBS and 2.5% Horse serum. Cells in logarithmic growth phase were detached with trypsin and EDTA, collected and counted, and 2.5E4 cells were seeded to a 96-well cell culture plate and cultured overnight. 1000× stock solutions of compounds at a concentration gradient of 3.16 were prepared by using DMSO, and diluted 200 times by the medium into 5× stock solutions of compounds. On the day after cell seeding, 5× stock solution of a compound was added to each well of cell culture plate, with a final concentration being 1× and a DMSO content of 0.1%. DMSO was used as the control. The residual culture was removed after culturing for 2 hours with the compound. To each well, 50 ul of cell lysis buffer was added and mixed uniformly and incubation for 30 minutes. Subsequently, 16 ul of mixed solution was transferred to a 96-well plate with white unclear bottom, and 16 ul of cell lysis buffer was added to the blank control group. After the completion of transfer, 4 ul of p-ERK HTRF antibody mixture was added to each well, and a value of fluorescence intensity was read after incubation for 4 hours. The inhibition rate (IR) of the compound was calculated by the following equation: IR (%)=(RLU control-RLU compound)/(RLU control−RLU blank)×100%. The value of IC50 was calculated by fitting a gradiently diluted concentration of the compound and the corresponding cell proliferation inhibition rate using a Prism 8 four-parameter method.

Row | SMILES | IC50 [1] [µM] | IC50 [2] [µM] | IC50 [3] [µM] | IC50 [4] [µM]
1 | C=CC(=O)N1C[C@@H]2COc3c(c4cc(F)c(-c5c(O)cccc5F)nc4n(-c4c(C)ccnc4C(C)C)c3=O)N2C[C@H]1C [Compound Z3, (6aR,9R)-8-acryloyl-3-fluoro-2-(2-fluoro-6-hydroxyphenyl)-13-(2-isopropyl-4-methylpyridin-3-yl)-9-methyl-6,6a,7,8,9,10-hexahydropyrazino[1′,2′:4,5][1,4]oxopyrazino[3,2-c][1,8]naphthyridin-12(13H)-one] | 0.016 | > 10 | 0.018 | 0.16
2 | C=CC(=O)N1C[C@@H]2COc3c(c4cc(F)c(-c5c(F)cccc5OC)nc4n(-c4c(C)ccnc4C(C)C)c3=O)N2C[C@H]1C [Compound Z3a, (2R,4aR)-3-acryloyl-11-fluoro-10-(2-fluoro-6-methoxyphenyl)-8-(2-isopropyl-4-methylpyridin-3-yl)-2-methyl-1,2,3,4,4a,5-hexahydropyrazino[1′,2′:4,5][1,4]oxopyrazino[2,3-c][1,8]naphthyridin-7(8H)-one] | 0.017 | > 10 | 0.07 | 0.273
3 | C=CC(=O)N1CCN2c3c(c(=O)n(-c4c(C)ccnc4C(C)C)c4nc(-c5c(O)cccc5F)c(Cl)cc34)OC[C@H]2C1 [Compound Z6, (4aR)-3-acryloyl-11-chloro-10-(2-fluoro-6-hydroxyphenyl)-8-(2-isopropyl-4-methylpyridin-3-yl)-1,2,3,4,4a,5-hexahydropyrazino[1′,2′:4,5][1,4]oxazino[2,3-c][1,8]naphthyridin-7(8H)-one] | 0.035 | 11.3 | 0.085 | 0.313
4 | C=CC(=O)N1C[C@@H]2C(=O)N(C)c3c(c4cc(F)c(-c5c(O)cccc5F)nc4n(-c4c(C(C)C)ncnc4C(C)C)c3=O)N2C[C@H]1C [Compound Z40, (2R,4aR)-3-acryloyl-8-(4,6-diisopropylpyrimidin-5-yl)-11-fluoro-10-(2-fluoro-6-hydroxyphenyl)-2,6-dimethyl-2,3,4,4a,6,8-hexahydro-1H-pyrazino[1′,2′:4,5]pyrazino[2,3-c][1,8]naphthyridin-5,7-dione] | 0.011 | > 30 | 0.012 | 0.078
5 | C=CC(=O)N1CCN2c3c(c(=O)n(-c4c(C(C)C)ncnc4C(C)C)c4nc(-c5c(O)cccc5F)c(F)cc34)N(C)C(=O)[C@H]2C1 [Compound Z41, (4aR)-3-acryloyl-8-(4,6-diisopropylpyrimidin-5-yl)-11-fluoro-10-(2-fluoro-6-hydroxyphenyl)-6-methyl-2,3,4,4a,6,8-hexahydro-1H-pyrazino[1′,2′:4,5]pyrazino[2,3-c][1,8]naphthyridin-5,7-dione] | 0.017 | > 30 | 0.044 | 0.279
6 | C=CC(=O)N1CCN2c3c(c(=O)n(-c4c(C)ccnc4C(C)C)c4nc(-c5c(O)cccc5F)c(F)cc34)NC(=O)CC2C1 (centres unmarked) [Compound Z42, 3-acryloyl-12-fluoro-11-(2-fluoro-6-hydroxyphenyl)-9-(2-isopropyl-4-methylpyridin-3-yl)-1,2,3,4,4a,5,7,9-octahydropyrazino[1′,2′:4,5][1,4]diaza[2,3-c][1,8]naphthyridin-6,8-dione] | 0.053 | > 30 | 0.128 | 0.566
7 | C=CC(=O)N1CCN2c3c(c(=O)n(-c4c(C)ccnc4C(C)C)c4nc(-c5c(O)cccc5F)c(F)cc34)N(C)C(=O)CC2C1 (centres unmarked) [Compound Z43, 3-acryloyl-12-fluoro-11-(2-fluoro-6-hydroxyphenyl)-9-(2-isopropyl-4-methylpyridin-3-yl)-7-methyl-1,2,3,4,4a,5,7,9-octahydropyrazino[1′,2′:4,5][1,4]diaza[2,3-c][1,8]naphthyridin-6,8-dione] | 0.049 | 29.2 | 0.22 | 0.439
8 | [2H]C([2H])([2H])N1C(=O)[C@H]2CN(C(=O)C=C)[C@H](C)CN2c2c1c(=O)n(-c1c(C(C)C)ncnc1C(C)C)c1nc(-c3c(O)cccc3F)c(F)cc21 [Compound Z44, (2R,4aR)-3-acryloyl-8-(4,6-diisopropylpyrimidin-5-yl)-11-fluoro-10-(2-fluoro-6-hydroxyphenyl)-2-methyl-6-(methyl-d3)-2,3,4,4a,6,8-hexahydro-1H-pyrazino[1′,2′:4,5]pyrazino[2,3-c][1,8]naphthyridin-5,7-dione] | 0.011 | > 30 | 0.034 | 0.088
9 | [2H]C([2H])([2H])N1C(=O)[C@H]2CN(C(=O)C=C)[C@H](C)CN2c2c1c(=O)n(-c1c(C(C)C)ncnc1C(C)C)c1nc(-c3c(F)cccc3OC)c(F)cc21 [Compound Z44a, (2R,4aR)-3-acryloyl-8-(4,6-diisopropylpyrimidin-5-yl)-11-fluoro-10-(2-fluoro-6-methoxyphenyl)-2-methyl-6-(methyl-d3)-2,3,4,4a,6,8-hexahydro-1H-pyrazino[1′,2′:4,5]pyrazino[2,3-c][1,8]naphthyridin-5,7-dione] | 0.024 | 9.24 | 0.103 | 0.17
10 | C=CC(=O)N1C[C@@H]2C(=O)Nc3c(c4cc(F)c(-c5c(O)cccc5F)nc4n(-c4c(C(C)C)ncnc4C(C)C)c3=O)N2C[C@H]1C [Compound Z45, (2R,4aR)-3-acryloyl-8-(4,6-diisopropylpyrimidin-5-yl)-11-fluoro-10-(2-fluoro-6-hydroxyphenyl)-2-methyl-2,3,4,4a,6,8-hexahydro-1H-pyrazino[1′,2′:4,5]pyrazino[2,3-c][1,8]naphthyridin-5,7-dione] | 0.013 | > 30 | 0.048 | 0.122
11 | C=CC(=O)N1C[C@@H]2C(=O)N(C)c3c(c4cc(F)c(-c5c(O)cccc5F)nc4n(-c4c(C)cc(C)nc4C(C)C)c3=O)N2C[C@H]1C [Compound Z46] | 0.012 | 10.3 | 0.068 | 0.224
